What all share (assay type): functional
Assay [1] has as its system Escherichia coli. The assay is described as follows: In vitro antibacterial activity against Escherichia coli 1850E strain and compared to imipenem.
Another assay deals with Clostridium perfringens. Kind of assay: In vitro antibacterial activity against Clostridium perfringens 615E strain and compared to imipenem.
Assay [2] concerns Escherichia coli. Kind of assay: In vitro antibacterial activity against Escherichia coli 1919E beta-lactamase producing strain and compared to imipenem.
Assay [3] deals with Staphylococcus aureus. Kind of assay: In vitro antibacterial activity against Staphylococcus aureus 663E strain and compared to imipenem.
A further assay relates to Enterococcus faecalis. Kind of assay: In vitro antibacterial activity against […] 850 strain and compared to imipenem.
Assay [4] deals with Staphylococcus aureus. The assay is described as follows: In vitro antibacterial activity against Staphylococcus aureus 853E beta-lactamase producing strain and compared to imipenem,.
Another assay has as its system Pseudomonas aeruginosa. The assay is described as follows: In vitro antibacterial activity against Pseudomonas aeruginosa 1911E strain and compared to imipenem.

Values after ≈ are worked out from the molar mass of the structure shown.

With `C[C@@H](O)[C@H]1C(=O)N2C(C(=O)[O-])=C3[C@@H](OCCCO)CCC[C@@H]3[C@H]12.[Na+]`, the MIC against Escherichia coli [1] was 2 µg/mL; against Clostridium perfringens it was 30 µg/mL; against Escherichia coli [2] it was 1 µg/mL; with Staphylococcus aureus [3], 0.2 µg/mL; against Enterococcus faecalis, 8 µg/mL; against Staphylococcus aureus [4], 0.5 µg/mL. In the assay on Pseudomonas aeruginosa, this molecule returned an MIC of over 32 µg/mL.

As for `C[C@@H](O)[C@H]1C(=O)N2C(C(=O)[O-])=C3[C@@H](OCCCN)CCC[C@@H]3[C@H]12.[Na+]`, the MIC against Escherichia coli [1] amounted to 0.5 µg/mL; against Clostridium perfringens, 60 µg/mL; against Escherichia coli [2], 0.5 µg/mL; against Staphylococcus aureus [3], 0.2 µg/mL; with Enterococcus faecalis it was 4 µg/mL; against Staphylococcus aureus [4], 0.2 µg/mL. Moreover, it took 16 µg/mL to inhibit growth against Pseudomonas aeruginosa (MIC).

For `C[C@@H](O)[C@H]1C(=O)N2C(C(=O)[O-])=C3[C@@H](OCCN=[N+]=[N-])CCC[C@@H]3[C@H]12.[Na+]`, the MIC against Escherichia coli [1] amounted to 8 µg/mL; against Clostridium perfringens, 30 µg/mL; against Escherichia coli [2], 1 µg/mL; against Staphylococcus aureus [3], 0.25 µg/mL; in the assay with Enterococcus faecalis it was 4 µg/mL; against Staphylococcus aureus [4] it was 0.5 µg/mL. Also, the MIC in the assay with Pseudomonas aeruginosa was over 32 µg/mL.

Consider `C[C@@H](O)[C@H]1C(=O)N2C(C(=O)[O-])=C3[C@@H](OCC/N=C/N)CCC[C@@H]3[C@H]12.[Na+]`, for which the MIC against Escherichia coli [1] worked out at 1 µg/mL; in the assay on Clostridium perfringens it was 120 µg/mL; against Escherichia coli [2], 1 µg/mL; against Staphylococcus aureus [3], 0.25 µg/mL; in the assay on Enterococcus faecalis, 2 µg/mL; against Staphylococcus aureus [4], 0.5 µg/mL. The molecule also displayed a minimal inhibitory concentration (MIC) against Pseudomonas aeruginosa of 32 µg/mL.

In the case of `C[C@@H](O)[C@H]1C(=O)N2C(C(=O)[O-])=C3[C@@H](OCCCN=[N+]=[N-])CCC[C@@H]3[C@H]12.[Na+]`, the MIC was 8 µg/mL against Escherichia coli [1]; 60 µg/mL in the assay on Clostridium perfringens; 1 µg/mL against Escherichia coli [2]; 0.2 µg/mL in the assay on Staphylococcus aureus [3]; 8 µg/mL against Enterococcus faecalis; 0.5 µg/mL in the assay on Staphylococcus aureus [4]. In the assay with Pseudomonas aeruginosa, this molecule gave an MIC of over 32 µg/mL.

Take `C/C(N)=N\CCO[C@H]1CCC[C@H]2C1=C(C(=O)[O-])N1C(=O)[C@H]([C@@H](C)O)[C@@H]21.[Na+]`: the MIC in the assay with Escherichia coli [1] turned out to be 1 µg/mL; against Clostridium perfringens, 120 µg/mL; in the assay on Escherichia coli [2], 0.5 µg/mL; in the assay with Staphylococcus aureus [3], 1 µg/mL; against Enterococcus faecalis, 16 µg/mL; in the assay on Staphylococcus aureus [4], 2 µg/mL. For the same molecule, the MIC with Pseudomonas aeruginosa came to 32 µg/mL.

In the case of `C[C@@H](O)[C@H]1C(=O)N2C(C(=O)[O-])=C3[C@@H](OCCN)CCC[C@@H]3[C@H]12.[Na+]`, the MIC with Escherichia coli [1] worked out at 0.5 µg/mL; against Clostridium perfringens it was 120 µg/mL; against Escherichia coli [2], 0.5 µg/mL; against Staphylococcus aureus [3] it was 0.5 µg/mL; with Enterococcus faecalis it was 8 µg/mL; against Staphylococcus aureus [4] it was 0.5 µg/mL. In the assay with Pseudomonas aeruginosa, the MIC turned out to be 8 µg/mL.

For the molecule `C[C@@H](O)[C@H]1C(=O)N2C(C(=O)O)=C(SCCNC=N)C[C@H]12` [IMIPENEM ANHYDROUS], the MIC against Escherichia coli [1] worked out at 0.5 µg/mL (≈ 1.67 µM); in the assay with Clostridium perfringens it was 30 µg/mL (≈ 100 µM); with Escherichia coli [2], 0.5 µg/mL (≈ 1.67 µM); in the assay with Staphylococcus aureus [3] it was 0.12 µg/mL (≈ 0.401 µM); against Enterococcus faecalis, 2 µg/mL (≈ 6.68 µM); against Staphylococcus aureus [4], 0.12 µg/mL (≈ 0.401 µM). In the assay on Pseudomonas aeruginosa, this molecule had an MIC of 4 µg/mL (≈ 13.4 µM).

By MIC is commonly meant the least concentration at which growth counts as inhibited.

The record behind these values is ChEMBL document CHEMBL1129149, “Synthesis and biological evaluation of 4-alkoxysubstituted trinems. Part II” (1996).
